# Measured values as given in patent US20050191348A1 (priority 2004, published 2005).
# Marks after values point to notes of the source that are not given here.
# Key:
# [1] = test system: PC12 cells; settings: PC12, Aβ1-42 10 μM 24 h
# [2] = test system: sAPPα; test: sAPPα release into medium of SH-SY5Y neuroblastoma cells; format: cell-based, human; settings: 1 μM, 3 h, SH-SY5Y conditioned media, mean ± SE of three experiments
# Description: For the experiments, cells were seeded (2×10^6) onto 100-mm plates (for SH-SY5Y cells) or T75 flasks (for PC12 cells) in culture medium supplemented with full serum for 48 h. The cells were replaced with fresh medium containing 0.5% FCS for an additional 24 h (subconfluent culture), and then the experiments were performed in fresh medium containing 0.5% FCS for the indicated time periods at 37° C. After incubation with various drugs, the conditioned media were collected, centrifuged at 3500 g (10 min, 4° C.) to remove cell debris, and the cleared supernatants were concentrated 10-fold by lyophilization.
# (vii) Determination of sAPP. Protein concentrations of cell lysates were assayed using Bradford reagent (Sigma Chemical). Equal amounts of volumes of conditioned medium, standardized to lysate protein, were subjected to […], using either the MAbs 22C11 or 6E10 in 50 mM Tris-HCl, pH 7.4, 150 mM NaCl, containing 0.05% Tween 20 and 1% BSA. Immunoreactivity was detected using anti-mouse IgG-conjugated with HRP and an enhanced chemiluminescence method (Amersham, Pharmacia Biotech, UK). Blots were developed for different times to span a linear range of response, and the relative intensity of immunoreactive bands on the exposed films was quantified by computer-assisted densitometry program (Quantity One, Bio-Rad, Hercules, Calif., USA).
# It was of interest to determine whether rasagiline and other propargylamine-containing drugs also regulate APP processing. For this purpose, SH-SY5Y neuroblastoma cells were incubated for 3 h without or with 1 μM of various drugs (TV3326 and its S-isomer TV3279, rasagiline and its S-isomer TVP1022, selegiline, aminoindan), and sAPPα was measured in the media as described in Materials and Methods.
# We further characterized, in detail, the effect of rasagiline on APP processing and the signaling pathways that are involved. Thus, SH-SY5Y neuroblastoma cells were incubated for 3 h without or with increasing concentrations of rasagiline (0.1, 1 and 10 μM), and sAPPα was measured in the media as described in Materials and Methods.
# For the sAPPα release, SH-SY5Y neuroblastoma cells or PC12 cells were incubated for 3 h without or with increasing concentrations of propargylamine (0.1, 1 and 10 μM), and sAPPα was measured in the media as described in Materials and Methods.
# [3] = test system: MAO; settings: Youdim et al., 2001b; cited from earlier work
# [4] = test system: PC12 cells; test: Cell death under serum deprivation (apoptotic cell death detection ELISA), PC12; format: cell-based, rat; settings: PC12, 24 h serum deprivation, significant at 1 and 10 μM
# Description: Two different neuronal cell lines were used: the rat PC12 and the human neuroblastoma SH-SY5Y cells.
# PC12 cells, originated from rat pheochromocytoma, were grown to confluence in T75 flasks containing DMEM (1000 mg/l glucose) and supplemented with 5% FCS, 10% horse serum, and a mixture of 1% of penicillin/streptomycin/nystatin.
# Cell cultures were incubated at 37° C. in a humid 5% CO2-95% air environment. For cell viability assays, cells were treated with various drugs in serum free media containing 0.1% BSA.
# In order to test cell viability, PC12 cells and SH-SY5Y neuroblastoma cels were incubated under serum deprivation and were untreated or treated with rasagiline (0.1. 1 or 10 μM) for 24 hours.
structure (smiles),measurement,setting,value
C#CCN[C@@H]1CCc2ccccc21 [TVP1022],protection against Aβ1-42 neurotoxicity,[1],protected PC12 cells from Aβ-evoked apoptosis
same,sAPPα secretion (fold/basal),[2],2.43 ± 0.27^c fold/basal
same,fold weaker as an inhibitor of MAO than rasagiline,[3],at least 1000 fold
same,cell death induced by serum deprivation,[4],protected serum deprived PC12 cells from apoptosis
